Data on 8 molecules can be found in BindingDB's records for doi:10.1021/jm00020a029 (Merck Research Laboratories, 1995).

Each structure is given as a SMILES string. Where a SMILES comes first, the peptide text is derived from it. [ ]: non-standard residue; d: D form. Phe(F5) = N[C@@H](Cc1c(F)c(F)c(F)c(F)c1F)C(=O)O; Phe(4-F) = N[C@@H](Cc1ccc(F)cc1)C(=O)O; 2Nal = N[C@@H](Cc1ccc2ccccc2c1)C(=O)O; Cha = N[C@@H](CC1CCCCC1)C(=O)O

As a reminder, the EC50 is the concentration that produces a half-maximal response. Lower therefore signals greater potency.

This experiment can be described thus: Evaluated for the activation of human thrombin receptor measured by platelet aggregation.
`CC(C)C[C@H](NC(=O)[C@H](CC(C)C)NC(=O)[C@H](Cc1ccc(F)cc1)NC(=O)[C@H](C)N)C(=O)N[C@@H](CCCNC(=N)N)C(N)=O` [(S)-2-[(S)-2-((S)-2-Amino-propionylamino)-3-(4-fluoro-phenyl)-propionylamino]-4-methyl-pentanoic acid [(S)-1-((S)-1-carbamoyl-4-guanidino-butylcarbamoyl)-3-methyl-butyl]-amide] (H-A[Phe(4-F)]LLR-NH2): the concentration for a half-maximal effect (EC50) worked out at 0.2 µM.

With `CC(C)C[C@H](NC(=O)[C@H](Cc1ccc(F)cc1)NC(=O)[C@H](C)N)C(=O)N[C@@H](CCCNC(=N)N)C(=O)N[C@@H](CCCNC(=N)N)C(N)=O` [(S)-2-[(S)-2-((S)-2-Amino-propionylamino)-3-(4-fluoro-phenyl)-propionylamino]-4-methyl-pentanoic acid [(S)-1-((S)-1-carbamoyl-4-guanidino-butylcarbamoyl)-4-guanidino-butyl]-amide] (H-A[Phe(4-F)]LRR-NH2), a half-maximal effect (EC50) was put at 40 µM.

`COc1ccc(C[C@H](NC(=O)[C@H](C)N)C(=O)N[C@@H](CC(C)C)C(=O)N[C@@H](CC(C)C)C(=O)N[C@@H](CCCNC(=N)N)C(N)=O)cc1` [(S)-2-[(S)-2-((S)-2-Amino-propionylamino)-3-(4-methoxy-phenyl)-propionylamino]-4-methyl-pentanoic acid [(S)-1-((S)-1-carbamoyl-4-guanidino-butylcarbamoyl)-3-methyl-butyl]-amide] (H-AY(Me)LLR-NH2) registered a 50% effective concentration (EC50) of 21.4 µM.

In the case of `CC(C)C[C@H](NC(=O)[C@H](CC(C)C)NC(=O)[C@H](CC1CCCCC1)NC(=O)[C@H](C)N)C(=O)N[C@@H](CCCNC(=N)N)C(N)=O` [(S)-2-[(S)-2-((S)-2-Amino-propionylamino)-3-cyclohexyl-propionylamino]-4-methyl-pentanoic acid [(S)-1-((S)-1-carbamoyl-4-guanidino-butylcarbamoyl)-3-methyl-butyl]-amide] (H-A[Cha]LLR-NH2), the EC50 stood at 28 µM.

Turning to `CC(C)C[C@H](NC(=O)[C@H](CC(C)C)NC(=O)[C@H](Cc1ccc2ccccc2c1)NC(=O)[C@H](C)N)C(=O)N[C@@H](CCCNC(=N)N)C(N)=O` [(S)-2-[(S)-2-((S)-2-Amino-propionylamino)-3-naphthalen-2-yl-propionylamino]-4-methyl-pentanoic acid [(S)-1-((S)-1-carbamoyl-4-guanidino-butylcarbamoyl)-3-methyl-butyl]-amide] (H-A[2Nal]LLR-NH2), the half-maximal effective concentration (EC50) was found to be 19 µM.

For `CC(C)C[C@H](NC(=O)[C@H](CC(C)C)NC(=O)[C@H](Cc1c(F)c(F)c(F)c(F)c1F)NC(=O)[C@H](C)N)C(=O)N[C@@H](CCCNC(=N)N)C(N)=O` [(S)-2-[(S)-2-((S)-2-Amino-propionylamino)-3-pentafluorophenyl-propionylamino]-4-methyl-pentanoic acid [(S)-1-((S)-1-carbamoyl-4-guanidino-butylcarbamoyl)-3-methyl-butyl]-amide] (H-A[Phe(F5)]LLR-NH2), the EC50 came out at 600 µM.

As for `CC(C)C[C@H](NC(=O)[C@H](Cc1ccccc1)NC(=O)[C@H](C)N)C(=O)N[C@@H](CC1CCCCC1)C(=O)N[C@@H](CCCNC(=N)N)C(N)=O` [(S)-2-[(S)-2-((S)-2-Amino-propionylamino)-3-phenyl-propionylamino]-4-methyl-pentanoic acid [(S)-1-((S)-1-carbamoyl-4-guanidino-butylcarbamoyl)-2-cyclohexyl-ethyl]-amide] (H-AFL[Cha]R-NH2), the EC50 turned out to be 0.4 µM.

In turn, `CC(C)C[C@H](NC(=O)[C@H](CC(C)C)NC(=O)[C@H](Cc1ccccc1)NC(=O)[C@H](C)N)C(=O)N[C@@H](CCCNC(=N)N)C(N)=O` [(S)-2-[(S)-2-((S)-2-Amino-propionylamino)-3-phenyl-propionylamino]-4-methyl-pentanoic acid [(S)-1-((S)-1-carbamoyl-4-guanidino-butylcarbamoyl)-3-methyl-butyl]-amide] (H-AFLLR-NH2) showed an EC50 of 0.8 µM.
